US20210369738A1, “PRODUCTION METHOD OF TELOMERASE ACTIVATORS AND TELOMERASE ACTIVATORS OBTAINED BY THIS METHOD” (IZMIR YUKSEK TEKNOLOJI ENSTITUSU, priority 2017, published 2021)

Key:
telomerase enzyme = molecular target: T1, telomerase enzyme (Homo sapiens, UniProt O14746); test: Telomerase activation, TELOTAGGG PCR ELISAPLUS kit, HEKn cells; type: cell-based; details: 24-hour incubation
T1 construct: host or cells: HEKn (human primary epidermal keratinocytes)
Method: Telomerase activation tests were performed on selected molecules as follows; For culturing HEKn (Human Primer Epidermal Keratinocyte, ATCC; PCS-200-010) cells, the cell medium containing the components given in Table 2 is prepared and the cells are grown in the Dermal Cell Basal medium (PCS-200-030) supplemented with components in 5% CO2 environment at 37° C.
Telomerase activation was performed using the TELOTAGGG PCR ELISAPLUS kit (Roche; 12013789001, 16× version), a highly sensitive and quantitative method, according to the manufacturer's protocol, as follows:
After application of the selected molecules to HEKn cell lines at the defined dose interval and completion of 24-hour incubation, cells are collected and counted by hemocytometer. 2×10^5 cells are transferred to clean microcentrifuge tubes and then centrifuged at 3000×g for 5 min (at 4° C.). The supernatant is removed and the cells in the pellet are suspended with 200 μl of lysis buffer (Solution 1) and incubated on ice for 30 min. After incubation the lysates are centrifuged at 16,000×g for 20 min (at 4° C.) and the cooled supernatant is transferred to clean microcentrifuge tubes.
PCR is designed for sample group and control group. 25 μl reaction mixture (Solution 2) and 5 μl internal standard solution (Solution 3) are transferred to the PCR tubes for both the positive and negative sample as well as for the sample to be investigated for activation or the prepared master mixture is taken to a 30 μl PCR tube to contain this content. For the samples to be tested, 2 μl of each PCR sample is added from the cell lysate. For the control group, 1 μl of the low or high concentration TS8 control sample (Solution 4 or 5) is transferred to a separate PCR tube. From the lysis buffer (Solution 1), 1 μl is transferred to a separate PCR tube.
For each sample, 10 μl of the denaturing agent (Solution 7) is added to the nuclease-free 96-well plate. 2.5 μl of the amplified product is transferred to the plate and incubated for 10 min at +15 and +25° C. 100 μL Hybridization Buffer T (Solution 8) is added to a portion of the samples, 100 μL Hybridization Buffer IS (Solution 9) is added to the other portion. After homogenization, 100 μl of the reaction mixture is transferred to the MP module coated with streptavidin and the MP module is carefully closed with the special coating paper. After completion of the transfer process, the MP module is shaken at 300 rpm for 2 hours at 37° C. After incubation, the hybridization solutions are removed. Each well is washed 3 times with 250 μl of 1× wash buffer (Solution 10). The prepared anti-DIG-HRP working solution (Solution 11) is added to each of the wells. The MP module is sealed with special coating paper and incubated for 30 min at 15-25° C. with shaking at 300 rpm and the solution is carefully removed from the wells. Each well is washed 5 times in 1× wash buffer (Solution 10). From room temperature TMB substrate solution (Solution 13), 100 μl is added to each well. The MP module is covered with special coating paper and incubated at 15-25° C. for 10-20 minutes at 300 rpm with shaking. The color change is terminated by adding the post-incubation termination agent (Solution 14). The samples are measured at […] in a microplate reader for 30 min. Compounds showing telomerase activation in the 1.5-fold and higher levels according to DMSO used as a negative control were considered active.

[1] = as a telomerase activator; cited from earlier work

T1 sequence (O14746 whole entry): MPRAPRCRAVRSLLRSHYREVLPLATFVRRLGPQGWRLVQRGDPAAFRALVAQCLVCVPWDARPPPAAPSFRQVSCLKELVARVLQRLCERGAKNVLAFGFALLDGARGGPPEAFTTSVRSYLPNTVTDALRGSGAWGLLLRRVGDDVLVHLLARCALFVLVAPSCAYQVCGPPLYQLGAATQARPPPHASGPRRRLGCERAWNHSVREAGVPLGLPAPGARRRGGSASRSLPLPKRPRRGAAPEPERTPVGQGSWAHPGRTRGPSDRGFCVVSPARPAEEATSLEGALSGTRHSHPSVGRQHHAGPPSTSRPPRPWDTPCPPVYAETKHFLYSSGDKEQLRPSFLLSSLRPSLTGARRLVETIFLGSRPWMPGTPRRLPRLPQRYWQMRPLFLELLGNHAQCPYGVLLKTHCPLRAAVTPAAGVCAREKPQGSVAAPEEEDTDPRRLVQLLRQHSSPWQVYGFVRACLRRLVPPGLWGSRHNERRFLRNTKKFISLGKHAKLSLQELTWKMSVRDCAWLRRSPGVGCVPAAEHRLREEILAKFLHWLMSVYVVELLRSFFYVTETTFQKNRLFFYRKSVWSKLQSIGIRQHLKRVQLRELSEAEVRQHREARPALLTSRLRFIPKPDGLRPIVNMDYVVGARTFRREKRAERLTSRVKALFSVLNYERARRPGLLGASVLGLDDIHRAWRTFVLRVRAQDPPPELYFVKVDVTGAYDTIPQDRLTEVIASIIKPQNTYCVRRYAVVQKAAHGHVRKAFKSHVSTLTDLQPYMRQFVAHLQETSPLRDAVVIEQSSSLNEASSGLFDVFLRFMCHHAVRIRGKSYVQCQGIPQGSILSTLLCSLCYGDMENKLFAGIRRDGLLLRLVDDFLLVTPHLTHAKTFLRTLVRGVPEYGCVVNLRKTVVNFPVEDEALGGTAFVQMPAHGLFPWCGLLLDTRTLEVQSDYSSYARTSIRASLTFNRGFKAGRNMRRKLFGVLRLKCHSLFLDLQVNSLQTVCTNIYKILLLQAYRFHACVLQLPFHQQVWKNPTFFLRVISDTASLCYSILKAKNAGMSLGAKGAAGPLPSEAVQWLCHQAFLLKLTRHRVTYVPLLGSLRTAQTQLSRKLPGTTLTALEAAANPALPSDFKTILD

Compound	Fold increase over negative control (DMSO) (telomerase enzyme; 0.5 nM)	Fold increase over negative control (DMSO) (telomerase enzyme; 2 nM)	Fold increase over negative control (DMSO) (telomerase enzyme; 10 nM)	Fold increase over negative control (DMSO) (telomerase enzyme; 30 nM)	Fold increase over negative control (DMSO) (telomerase enzyme; 50 nM)	Fold increase over negative control (DMSO) (telomerase enzyme; 300 nM)	Fold increase over negative control (DMSO) (telomerase enzyme; 0.1 nM)	bioavailability [1]	Fold increase over negative control (DMSO) (telomerase enzyme; 100 nM)	Fold increase over negative control (DMSO) (telomerase enzyme; 1000 nM)
CC(C)(O)[C@@H]1CC[C@](C)([C@H]2[C@@H](O)C[C@@]3(C)C4C[C@H](O)[C@@H](C(C)(C)O)[C@@]5(CCC(=O)O)C[C@@]45CC[C@]23C)O1 (some centres unmarked) [Molecule 11]	2.08 fold	1.9 fold	1.73 fold	3.17 fold						
CC(C)(O)[C@@H]1CC[C@](C)([C@H]2[C@@H](O)C[C@@]3(C)C4C[C@H](O)C5C(C)(C)[C@@H](O)CC[C@@]56C[C@@]46C[C@@H](O)[C@]23C)O1 (some centres unmarked) [Molecule 4]		2.13 fold	2.22 fold		2.4 fold	2.13 fold				
CC(C)(O)[C@@H]1CC[C@](C)([C@H]2[C@@H](O)C[C@@]3(C)C4C[C@H](O)C5C(C)(C)[C@@H](O)CC[C@]5(C)C4=C[C@H](O)[C@]23C)O1 (some centres unmarked) [Molecule 16]	2.31 fold	2.78 fold	0.95 fold				0.98 fold			
CC1(C)C(=O)CC[C@]23C[C@]24CC[C@]2(C)[C@@H]([C@@]5(C)CC[C@@H](C(C)(C)O)O5)[C@@H](O)C[C@@]2(C)C4C[C@H](O)C13 (some centres unmarked) [Molecule 12]	4.65 fold	2.14 fold	1.78 fold	0.84 fold						
CC1(C)OC(=O)CC[C@]23C[C@]24CC[C@]2(C)[C@@H]([C@@]5(C)CC[C@@H](C(C)(C)O)O5)[C@@H](O)C[C@@]2(C)C4C[C@H](O)C13 (some centres unmarked) [Molecule 10]	8.43 fold	9.35 fold	9.95 fold	4.6 fold						
CC(C)(O)[C@@H]1CC[C@](C)([C@H]2[C@@H](O)C[C@@]3(C)C4C[C@H](O)C5C(C)(C)[C@@H](O)CC[C@@]56C[C@@]46C[C@H](O)[C@]23C)O1 (some centres unmarked) [Molecule 6]	9.23 fold	10 fold	6.38 fold	2.37 fold						
CC(C)(O)[C@@H]1CC[C@](C)([C@H]2[C@@H](O)C[C@@]3(C)C4C[C@H](O)C5C(C)(C)[C@@H](O)CC[C@]5(C)C4=C[C@@H](O)[C@]23C)O1 (some centres unmarked) [Molecule 14]		2.53 fold	1.62 fold		1.6 fold	0.53 fold				
CC(C)(O)[C@@H]1CC[C@](C)([C@H]2[C@@H](O)C[C@@]3(C)C4C[C@H](O)C5C(C)(C)[C@@H](O)CC[C@@]56C[C@@]46CC[C@]23C)O1 (some centres unmarked) [Cycloastragenol]								5%		
CC(C)(O)[C@@H]1CC[C@](C)([C@H]2[C@@H](O)C[C@@]3(C)C4C[C@H](O)[C@@H](C(C)(C)O)[C@](C)(CCC(=O)O)C4=CC[C@]23C)O1 (some centres unmarked) [Molecule 19]	2.65 fold	1.24 fold	11.32 fold	1.93 fold						
CC(C)(O)[C@@H]1CC[C@](C)([C@H]2[C@@H](O)C[C@@]3(C)C4C[C@H](O)C5C(C)(C)[C@@H](O)CC[C@]5(C)C4=CC(=O)[C@]23C)O1 (some centres unmarked) [Molecule 17]	0.42 fold	1.33 fold	1 fold		1.57 fold					
CC1(C)C(=O)C[C@H](O)[C@]23C[C@]24CC[C@]2(C)[C@@H]([C@@]5(C)CC[C@@H](C(C)(C)O)O5)[C@@H](O)C[C@@]2(C)C4C[C@H](O)C13 (some centres unmarked) [Molecule 1]				1.73 fold		0.74 fold			0.72 fold	1.2 fold
C=C(C)[C@@H]1[C@@H](O)CC2C(=CC[C@]3(C)[C@@H]([C@@]4(C)CC[C@@H](C(C)(C)O)O4)[C@@H](O)C[C@@]23C)[C@@]1(C)CCC(=O)O (some centres unmarked) [Molecule 20]	9.01 fold	5.23 fold	6.04 fold	7.86 fold						
CC1(C)C(=O)CC[C@]2(C)C3=CC[C@]4(C)[C@@H]([C@@]5(C)CC[C@@H](C(C)(C)O)O5)[C@@H](O)C[C@@]4(C)C3C[C@H](O)C12 (some centres unmarked) [Molecule 21]	9.25 fold	1.43 fold	1.04 fold	1.18 fold						
CC1(C)C(=O)CC[C@]23C[C@]24CC[C@]2(C)[C@@H]([C@@]5(C)CC[C@@H](C(C)(C)O)O5)[C@@H](O)C[C@@]2(CO)C4C[C@H](O)C13 (some centres unmarked) [Molecule 3]				2.36 fold		1.24 fold			0.78 fold	1.07 fold
